This note sets out measurements from publication PMC9133015 (Nature Communications, 2022).

Test in all cases: Kinase inhibitor specificity profiling (Reaction Biology Corporation)
Type in all cases: biochemical
Design in all cases: % Enzyme Activity (relative to DMSO controls): concentration or dose not given beside the values

Test [1] addresses T1, panel of 370 protein kinases (Homo sapiens, UniProt P05771).
T1 construct: purchased Reaction Biology Corporation (assay service)
To be noted: 2 h, kinase PKCb1; read-out: % Enzyme Activity (relative to DMSO controls).

In test [2] the target is T2, panel of 370 protein kinases (Homo sapiens, UniProt P10398).
T2 construct: purchased Reaction Biology Corporation (assay service)
To be noted: 2 h, kinase ARAF; read-out: % Enzyme Activity (relative to DMSO controls).

Test [3] deals with T3, panel of 370 protein kinases (Homo sapiens, UniProt P22694).
T3 construct: purchased Reaction Biology Corporation (assay service)
The note with it: 2 h, kinase PKAcb; read-out: % Enzyme Activity (relative to DMSO controls).

In test [4] the target is T4, panel of 370 protein kinases (Homo sapiens, UniProt P09769).
T4 construct: purchased Reaction Biology Corporation (assay service)
To be noted: 2 h, kinase FGR; read-out: % Enzyme Activity (relative to DMSO controls).

Test [5] concerns the target T5, panel of 370 protein kinases (Homo sapiens, UniProt O15530).
T5 construct: purchased Reaction Biology Corporation (assay service)
To be noted: 2 h, kinase PDK1/PDPK1; read-out: % Enzyme Activity (relative to DMSO controls).

Test [6] addresses T6, panel of 370 protein kinases (Homo sapiens, UniProt P46734).
T6 construct: purchased Reaction Biology Corporation (assay service)
To be noted: 2 h, kinase MEK3; read-out: % Enzyme Activity (relative to DMSO controls).

The target in test [7] is T7, panel of 370 protein kinases (Homo sapiens, UniProt P21709).
T7 construct: purchased Reaction Biology Corporation (assay service)
To be noted: 2 h, kinase EPHA1; read-out: % Enzyme Activity (relative to DMSO controls).

Test [8] addresses T8, panel of 370 protein kinases (Homo sapiens, UniProt P49840).
T8 construct: purchased Reaction Biology Corporation (assay service)
The note with it: 2 h, kinase GSK3a; read-out: % Enzyme Activity (relative to DMSO controls).

Test [9] addresses T9, panel of 370 protein kinases (Homo sapiens, UniProt Q13873).
T9 construct: purchased Reaction Biology Corporation (assay service)
To be noted: kinase BMPR2.

In test [10] the target is T10, panel of 370 protein kinases (Homo sapiens, UniProt Q9UM73).
T10 construct: purchased Reaction Biology Corporation (assay service)
T10 sequence (Q9UM73 19-1620): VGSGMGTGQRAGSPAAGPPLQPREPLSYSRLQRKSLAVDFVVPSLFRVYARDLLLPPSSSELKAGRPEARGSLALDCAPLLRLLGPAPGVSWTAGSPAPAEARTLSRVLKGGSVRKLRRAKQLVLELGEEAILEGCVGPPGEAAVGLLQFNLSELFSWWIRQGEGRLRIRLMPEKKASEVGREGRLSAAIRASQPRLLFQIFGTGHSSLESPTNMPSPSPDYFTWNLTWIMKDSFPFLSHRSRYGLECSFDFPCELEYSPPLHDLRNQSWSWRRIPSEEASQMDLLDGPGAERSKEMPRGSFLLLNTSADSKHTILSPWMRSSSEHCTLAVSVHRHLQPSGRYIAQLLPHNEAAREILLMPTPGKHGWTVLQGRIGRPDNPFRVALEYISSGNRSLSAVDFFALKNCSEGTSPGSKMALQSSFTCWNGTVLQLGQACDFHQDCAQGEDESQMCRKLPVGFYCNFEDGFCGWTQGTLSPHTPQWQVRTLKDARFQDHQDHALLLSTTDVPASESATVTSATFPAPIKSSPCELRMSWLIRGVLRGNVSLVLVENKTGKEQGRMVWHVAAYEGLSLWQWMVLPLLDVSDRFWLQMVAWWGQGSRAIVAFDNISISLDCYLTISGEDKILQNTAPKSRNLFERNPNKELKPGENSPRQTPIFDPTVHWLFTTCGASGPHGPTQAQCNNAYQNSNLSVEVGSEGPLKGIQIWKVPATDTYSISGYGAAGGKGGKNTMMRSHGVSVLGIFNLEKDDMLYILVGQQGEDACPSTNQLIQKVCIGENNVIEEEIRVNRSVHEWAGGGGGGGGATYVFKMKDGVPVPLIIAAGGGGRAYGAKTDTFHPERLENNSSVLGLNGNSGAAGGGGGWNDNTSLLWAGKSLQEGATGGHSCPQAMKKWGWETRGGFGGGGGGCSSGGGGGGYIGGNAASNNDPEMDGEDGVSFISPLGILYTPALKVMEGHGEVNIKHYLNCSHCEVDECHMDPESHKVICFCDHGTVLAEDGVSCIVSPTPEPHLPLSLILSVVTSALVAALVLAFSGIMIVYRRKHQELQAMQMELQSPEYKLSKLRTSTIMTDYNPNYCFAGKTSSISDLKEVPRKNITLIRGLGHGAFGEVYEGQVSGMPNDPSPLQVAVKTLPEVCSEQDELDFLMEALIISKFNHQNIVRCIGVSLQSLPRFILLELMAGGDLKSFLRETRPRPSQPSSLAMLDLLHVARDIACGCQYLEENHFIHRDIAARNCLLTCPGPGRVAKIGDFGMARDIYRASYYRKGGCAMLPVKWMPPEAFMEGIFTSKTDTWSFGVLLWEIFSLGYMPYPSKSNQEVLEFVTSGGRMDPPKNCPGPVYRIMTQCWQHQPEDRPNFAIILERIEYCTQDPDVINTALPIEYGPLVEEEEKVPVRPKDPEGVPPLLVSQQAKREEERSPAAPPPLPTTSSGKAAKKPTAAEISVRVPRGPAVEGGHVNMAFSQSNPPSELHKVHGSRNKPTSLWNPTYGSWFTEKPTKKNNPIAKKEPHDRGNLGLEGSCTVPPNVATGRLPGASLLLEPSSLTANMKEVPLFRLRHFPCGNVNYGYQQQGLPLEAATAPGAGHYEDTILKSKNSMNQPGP
To be noted: 2 h, kinase ALK; read-out: % Enzyme Activity (relative to DMSO controls).

Test [11] concerns the target T11, panel of 370 protein kinases (Homo sapiens, UniProt P53350).
T11 construct: purchased Reaction Biology Corporation (assay service)
To be noted: 2 h, kinase PLK1; read-out: % Enzyme Activity (relative to DMSO controls).

The target in test [12] is T12, panel of 370 protein kinases (Homo sapiens, UniProt Q9H3Y6).
T12 construct: purchased Reaction Biology Corporation (assay service)
T12 sequence (Q9H3Y6 whole entry): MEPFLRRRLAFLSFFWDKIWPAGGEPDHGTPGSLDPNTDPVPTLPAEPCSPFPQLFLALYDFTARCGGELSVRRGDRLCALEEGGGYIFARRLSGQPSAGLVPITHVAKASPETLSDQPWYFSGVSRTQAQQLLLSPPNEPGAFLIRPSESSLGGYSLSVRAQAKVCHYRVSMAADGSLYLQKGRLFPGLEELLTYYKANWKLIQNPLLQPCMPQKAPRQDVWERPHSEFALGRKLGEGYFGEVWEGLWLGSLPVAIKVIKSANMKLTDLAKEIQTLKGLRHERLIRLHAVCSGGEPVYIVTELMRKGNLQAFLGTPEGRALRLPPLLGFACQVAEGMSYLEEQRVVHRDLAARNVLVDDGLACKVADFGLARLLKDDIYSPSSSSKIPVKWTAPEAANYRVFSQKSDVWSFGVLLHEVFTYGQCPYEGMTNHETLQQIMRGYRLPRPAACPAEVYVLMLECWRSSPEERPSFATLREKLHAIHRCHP
To be noted: 2 h, kinase SRMS; read-out: % Enzyme Activity (relative to DMSO controls).

The target of test [13] is T13, panel of 370 protein kinases (Homo sapiens, UniProt Q5TCY1).
T13 construct: purchased Reaction Biology Corporation (assay service)
The note with it: 2 h, kinase TTBK1; read-out: % Enzyme Activity (relative to DMSO controls).

Test [14] deals with T14, panel of 370 protein kinases (Homo sapiens, UniProt O15111).
T14 construct: purchased Reaction Biology Corporation (assay service)
The note with it: 2 h, kinase IKKa/CHUK; read-out: % Enzyme Activity (relative to DMSO controls).

Test [15] deals with T15, panel of 370 protein kinases (Homo sapiens, UniProt Q15375).
T15 construct: purchased Reaction Biology Corporation (assay service)
The note with it: 2 h, kinase EPHA7; read-out: % Enzyme Activity (relative to DMSO controls).

Test [16] deals with T16, panel of 370 protein kinases (Homo sapiens, UniProt Q13188).
T16 construct: purchased Reaction Biology Corporation (assay service)
T16 sequence (Q13188 whole entry): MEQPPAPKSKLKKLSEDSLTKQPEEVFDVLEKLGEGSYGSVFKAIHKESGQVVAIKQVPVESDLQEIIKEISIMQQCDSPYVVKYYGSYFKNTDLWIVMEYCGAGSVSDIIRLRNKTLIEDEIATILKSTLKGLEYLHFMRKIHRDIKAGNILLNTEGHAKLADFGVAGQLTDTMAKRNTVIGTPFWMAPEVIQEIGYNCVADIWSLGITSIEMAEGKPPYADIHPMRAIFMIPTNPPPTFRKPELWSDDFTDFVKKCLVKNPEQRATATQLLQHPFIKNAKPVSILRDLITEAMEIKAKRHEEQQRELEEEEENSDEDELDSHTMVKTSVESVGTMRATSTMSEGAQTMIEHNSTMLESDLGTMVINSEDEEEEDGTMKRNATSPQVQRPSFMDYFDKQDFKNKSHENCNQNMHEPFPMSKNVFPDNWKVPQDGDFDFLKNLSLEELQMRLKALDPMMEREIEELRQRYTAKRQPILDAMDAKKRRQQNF
To be noted: 2 h, kinase MST2/STK3; read-out: % Enzyme Activity (relative to DMSO controls).

Test [17] has as its target T17, panel of 370 protein kinases (Homo sapiens, UniProt Q15139).
T17 construct: purchased Reaction Biology Corporation (assay service)
The note with it: 2 h, kinase PKCmu/PRKD1; read-out: % Enzyme Activity (relative to DMSO controls).

The target in test [18] is T18, panel of 370 protein kinases (Homo sapiens, UniProt Q8WTQ7).
T18 construct: purchased Reaction Biology Corporation (assay service)
To be noted: 2 h, kinase GRK7; read-out: % Enzyme Activity (relative to DMSO controls).

The target in test [19] is T19, panel of 370 protein kinases (Homo sapiens, UniProt Q96L34).
T19 construct: purchased Reaction Biology Corporation (assay service)
T19 sequence (Q96L34 whole entry): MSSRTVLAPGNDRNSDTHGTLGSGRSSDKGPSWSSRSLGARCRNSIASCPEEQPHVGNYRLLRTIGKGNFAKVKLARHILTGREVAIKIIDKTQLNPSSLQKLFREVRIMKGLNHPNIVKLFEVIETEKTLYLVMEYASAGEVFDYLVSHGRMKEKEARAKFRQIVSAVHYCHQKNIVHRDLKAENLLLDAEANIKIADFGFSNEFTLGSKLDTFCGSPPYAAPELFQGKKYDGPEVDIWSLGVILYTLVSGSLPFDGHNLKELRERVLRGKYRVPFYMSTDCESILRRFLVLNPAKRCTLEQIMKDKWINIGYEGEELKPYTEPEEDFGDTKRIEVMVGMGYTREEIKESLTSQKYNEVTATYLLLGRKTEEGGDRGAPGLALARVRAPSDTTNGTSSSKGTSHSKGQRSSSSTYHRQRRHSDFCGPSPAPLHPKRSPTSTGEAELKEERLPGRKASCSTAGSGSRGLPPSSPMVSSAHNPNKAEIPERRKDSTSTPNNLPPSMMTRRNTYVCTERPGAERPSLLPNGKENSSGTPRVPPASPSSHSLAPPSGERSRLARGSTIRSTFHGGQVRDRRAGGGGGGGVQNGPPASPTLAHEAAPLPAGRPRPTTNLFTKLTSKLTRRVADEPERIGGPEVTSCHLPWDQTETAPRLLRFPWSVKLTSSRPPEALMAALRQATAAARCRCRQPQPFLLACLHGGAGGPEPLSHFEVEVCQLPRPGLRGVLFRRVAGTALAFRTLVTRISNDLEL
To be noted: kinase MARK4.

Test [20] deals with T20, panel of 370 protein kinases (Homo sapiens, UniProt Q13976).
T20 construct: purchased Reaction Biology Corporation (assay service)
The note with it: 2 h, kinase PKG1a; read-out: % Enzyme Activity (relative to DMSO controls).

The target in test [21] is T21, panel of 370 protein kinases (Homo sapiens, UniProt P17948).
T21 construct: purchased Reaction Biology Corporation (assay service)
The note with it: 2 h, kinase FLT1/VEGFR1; read-out: % Enzyme Activity (relative to DMSO controls).

Values joined by “and” are separate entries in the source; they are usually repeats but may differ in a detail not shown here. Identical values can stand only once.

T9 sequence (Q13873 27-1038): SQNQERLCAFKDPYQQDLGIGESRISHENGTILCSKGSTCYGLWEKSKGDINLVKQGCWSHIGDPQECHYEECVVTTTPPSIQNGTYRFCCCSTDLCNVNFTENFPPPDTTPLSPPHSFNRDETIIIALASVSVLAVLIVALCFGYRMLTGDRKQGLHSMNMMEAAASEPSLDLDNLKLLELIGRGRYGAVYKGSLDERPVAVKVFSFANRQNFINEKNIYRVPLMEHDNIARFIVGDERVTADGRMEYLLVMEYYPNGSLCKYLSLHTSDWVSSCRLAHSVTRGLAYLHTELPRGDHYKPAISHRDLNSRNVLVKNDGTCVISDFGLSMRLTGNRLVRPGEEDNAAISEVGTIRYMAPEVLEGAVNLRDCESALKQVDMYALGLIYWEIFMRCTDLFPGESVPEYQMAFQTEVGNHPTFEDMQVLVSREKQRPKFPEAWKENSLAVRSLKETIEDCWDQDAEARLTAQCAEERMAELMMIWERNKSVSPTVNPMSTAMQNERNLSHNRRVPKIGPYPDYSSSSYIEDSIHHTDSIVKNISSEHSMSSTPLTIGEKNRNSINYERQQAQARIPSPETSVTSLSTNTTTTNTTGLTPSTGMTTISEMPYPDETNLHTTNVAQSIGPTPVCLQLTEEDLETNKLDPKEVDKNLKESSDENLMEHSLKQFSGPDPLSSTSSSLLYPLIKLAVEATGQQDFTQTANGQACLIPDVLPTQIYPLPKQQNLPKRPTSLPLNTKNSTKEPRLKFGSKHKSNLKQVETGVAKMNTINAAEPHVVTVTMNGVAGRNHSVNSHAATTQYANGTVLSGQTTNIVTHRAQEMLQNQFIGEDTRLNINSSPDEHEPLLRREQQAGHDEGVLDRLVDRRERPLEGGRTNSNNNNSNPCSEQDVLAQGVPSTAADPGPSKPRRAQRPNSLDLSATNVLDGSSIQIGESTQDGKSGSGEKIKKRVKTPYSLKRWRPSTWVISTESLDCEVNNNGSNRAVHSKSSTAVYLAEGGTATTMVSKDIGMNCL
T1 sequence (P05771 whole entry): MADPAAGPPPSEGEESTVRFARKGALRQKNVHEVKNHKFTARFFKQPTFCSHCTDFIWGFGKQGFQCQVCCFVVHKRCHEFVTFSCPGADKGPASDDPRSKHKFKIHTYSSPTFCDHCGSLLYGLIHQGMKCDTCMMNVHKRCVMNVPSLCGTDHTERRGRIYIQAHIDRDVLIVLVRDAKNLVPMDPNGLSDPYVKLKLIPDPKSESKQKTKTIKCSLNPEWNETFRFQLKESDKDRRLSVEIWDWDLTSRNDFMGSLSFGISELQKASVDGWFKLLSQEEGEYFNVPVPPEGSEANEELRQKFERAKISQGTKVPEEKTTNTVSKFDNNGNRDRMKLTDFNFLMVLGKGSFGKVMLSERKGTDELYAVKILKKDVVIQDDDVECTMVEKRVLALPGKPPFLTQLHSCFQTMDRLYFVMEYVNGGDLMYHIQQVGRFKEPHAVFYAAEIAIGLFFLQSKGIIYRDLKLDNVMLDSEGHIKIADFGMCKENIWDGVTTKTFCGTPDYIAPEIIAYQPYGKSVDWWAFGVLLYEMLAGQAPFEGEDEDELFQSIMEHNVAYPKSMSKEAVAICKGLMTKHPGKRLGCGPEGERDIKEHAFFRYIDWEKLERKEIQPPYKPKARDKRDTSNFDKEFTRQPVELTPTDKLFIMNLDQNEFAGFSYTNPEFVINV

On to `CCN1CCN(C(=O)c2ccc(Nc3ncc(F)c(-c4ccc5nc(N(C)C)sc5c4)n3)nc2)CC1` [YK-2-69], for which the remaining activity at 1 µM worked out at 101% in [1]; 90.6% in test [2]; 99.7% in [3]; 106% in [4]; 100% in [5]; 103% in test [6]. Further, the remaining activity at 1 µM in test [7] was found to be 109%; in test [8], 42.3%; in test [10], 98.8%; in [11], 115%; in test [12], 80.7%; in test [13], 97.4%. In addition, the remaining activity at 1 µM in test [14] came to 77.1%; in test [15], 83%; in test [16] it was 98.9%; in test [17], 89.6%; in test [18], 102%; in test [20], 92.2%. Further, the remaining activity at 1 µM in test [21] came to 101%. For the same molecule, the “% Enzyme Activity (relative to DMSO controls)” value in test [9] is 80.68% and 76.25%; in [19], 79.55% and 79.20%.
